ChEMBL document CHEMBL1126518, “EPSP synthase inhibitor design II. The importance of the 3-phosphate group for ligand binding at the shikimate-3-phosphate site & the identification of 3-malonate ethers as novel 3-phosphate mimics” (Bioorg Med Chem Lett, 1993)
Blank lines part the entries; values can stand above or below the molecule they belong to.

How the values were obtained:
[1] = target: T1, 3-phosphoshikimate 1-carboxyvinyltransferase (Escherichia coli K-12, UniProt P0A6D3); assay: Inhibition of Escherichia coli EPSP(5-enolpyruvyl-shikimate-3-phosphate) Synthase
T1 sequence (P0A6D3 whole entry): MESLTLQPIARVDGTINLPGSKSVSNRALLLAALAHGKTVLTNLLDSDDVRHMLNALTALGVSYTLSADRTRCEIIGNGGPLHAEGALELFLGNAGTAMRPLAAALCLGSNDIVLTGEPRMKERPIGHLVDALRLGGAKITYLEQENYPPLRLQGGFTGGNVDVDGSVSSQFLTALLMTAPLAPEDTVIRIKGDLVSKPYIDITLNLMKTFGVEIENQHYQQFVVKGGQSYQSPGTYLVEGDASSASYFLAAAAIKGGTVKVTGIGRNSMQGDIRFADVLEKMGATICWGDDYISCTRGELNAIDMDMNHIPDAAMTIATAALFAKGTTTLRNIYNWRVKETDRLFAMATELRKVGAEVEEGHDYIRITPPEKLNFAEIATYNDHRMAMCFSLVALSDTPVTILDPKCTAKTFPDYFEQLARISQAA

[2] = target: T2, 3-phosphoshikimate 1-carboxyvinyltransferase (Escherichia coli K-12) (UniProt P0A6D3); assay: (§1) Enzyme Kinetic activity was calculated against Escherichia coli EPSP(5-enolpyruvyl-shikimate-3-phosphate) Synthase
T2 sequence (whole entry): T1 sequence (P0A6D3 whole entry)

[3] = substrate: C=C(O[C@@H]1CC(C(=O)O)=C[C@@H](O)[C@H]1O)C(=O)O; assay: as §1

IC50 [1]: > 90 mM
Molecule: O=C(O)C1=CC(OCP(=O)(O)O)CCC1 (stereo not drawn)

Molecule: O=C(O)C1=CC(CP(=O)(O)O)CCC1 (stereo not drawn)
IC50 [1]: > 90 mM

IC50 [1]: > 90 mM
Molecule: O=C(O)C1=CC(C(C(=O)O)C(=O)O)CCC1 (stereo not drawn)

IC50 [1]: 7.5 mM
Molecule: O=C(O)C1=CC(OP(=O)(O)O)CCC1 (stereo not drawn)

Molecule: O=C(O)C1=C/C(=C\P(=O)(O)O)CCC1
IC50 [1]: > 90 mM

Molecule: O=C(O)C1=C/C(=C/P(=O)(O)O)CCC1
IC50 [1]: > 90 mM

IC50 [1]: > 90 mM
Molecule: O=C(O)CO[C@@H]1CC(C(=O)O)=C[C@@H](O)[C@H]1O

IC50 [1]: 15 mM
Molecule: O=C(O)C1=CC(OC(C(=O)O)C(=O)O)CCC1 (stereo not drawn)

IC50 [1]: > 90 mM
Molecule: O=C(CP(=O)(O)O)O[C@@H]1CC(C(=O)O)=C[C@@H](O)[C@H]1O

IC50 [1]: > 90 mM
k cat [2]: 0.2 s⁻¹
Molecule: C=C(O[C@@H]1CC(C(=O)O)=C[C@@H](O)[C@H]1O)C(=O)O

IC50 [1]: 0.1 mM
Molecule: O=C(O)CO[C@@H]1CC(C(=O)O)=C[C@@H](OP(=O)(O)O)[C@H]1O

B1: 3-phosphoshikimate 1-carboxyvinyltransferase (Escherichia coli K-12), P0A6D3 (protein)
chain: T1 sequence (P0A6D3 whole entry)
Km [3]: 24 mM
